Test results taken from patent US12264134B2 (Merck Sharp & Dohme LLC, priority 2018, dated 2025).

Each molecule was assayed against IDO1 (Homo sapiens, UniProt P14902) (assay: IDO1 Cellular Assay in HeLa Cells Stimulated with IFNγ). Settings: read-out: HeLa Cell Potency, IC50.
Type: cell-based

Chain of IDO1 (P14902 whole entry): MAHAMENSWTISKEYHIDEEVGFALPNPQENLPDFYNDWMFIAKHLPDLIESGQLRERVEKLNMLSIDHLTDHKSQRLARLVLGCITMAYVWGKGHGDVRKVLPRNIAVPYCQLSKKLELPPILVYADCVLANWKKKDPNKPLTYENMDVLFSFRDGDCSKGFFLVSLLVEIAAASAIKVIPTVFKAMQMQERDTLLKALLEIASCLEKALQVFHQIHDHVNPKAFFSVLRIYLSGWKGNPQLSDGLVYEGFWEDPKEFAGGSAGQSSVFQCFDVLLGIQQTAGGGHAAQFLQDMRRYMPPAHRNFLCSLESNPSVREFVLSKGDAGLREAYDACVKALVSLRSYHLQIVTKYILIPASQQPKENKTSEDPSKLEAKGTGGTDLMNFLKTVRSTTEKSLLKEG

Going from `Cc1ccc(N2CCN(C(=O)Cn3nc(C(=O)N4C[C@@H](C)O[C@@H](C)C4)c4c3CCC4)CC2)cc1Cl` [Example 61, 1-[4-(3-chloro-4-methylphenyl)piperazin-1-yl]-2-{3-[(2R,6S)-2,6-dimethylmorpholine-4-carbonyl]-5,6-dihydrocyclopenta[c]pyrazol-1(4H)-yl}ethan-1-one] to `COc1cc(N2CCN(C(=O)Cn3nc(C(=O)N4C[C@@H](C)O[C@@H](C)C4)c4c3CCC4)CC2)ccc1C` [Example 37, 2-{3-[(2R,6S)-2,6-dimethylmorpholine-4-carbonyl]-5,6-dihydrocyclopenta[c]pyrazol-1(4H)-yl}-1-[4-(3-methoxy-4-methylphenyl)piperazin-1-yl]ethan-1-one], the IC50 rises from 65.6 nM to 234 nM (3.6-fold).

Going from `Cc1cccc(N2CCN(C(=O)Cn3nc(C(=O)N4CCC(F)(CO)CC4)c4c3CCCC4)CC2)c1C` [Example 467, 1-(4-(2,3-dimethylphenyl)piperazin-1-yl)-2-(3-(4-fluoro-4-(hydroxymethyl)piperidine-1-carbonyl)-4,5,6,7-tetrahydro-1H-indazol-1-yl)ethanone] to `Cc1cccc(N2CCN(C(=O)Cn3nc(C(=O)N4CCC(F)(CO)C4)c4c3CCC4)CC2)c1C` (centres unmarked) [Example 300, 1-[4-(2,3-dimethylphenyl)piperazin-1-yl]-2-{3-[3-fluoro-3-(hydroxymethyl)pyrrolidine-1-carbonyl]-5,6-dihydrocyclopenta[c]pyrazol-1(4H)-yl}ethan-1-one], the IC50 rises from 1.87 nM to 16.9 nM (9-fold). The first is the more potent here.

Going from `Cc1cccc(N2CCN(C(=O)Cn3nc(C(=O)N4CC[C@@H](N)C(F)(F)C4)c4c3CCC4)CC2)c1C` (single isomer, unassigned) [Example 206, [(4R or 4S)-1-[1-[2-[4-(2,3-dimethylphenyl)piperazin-1-yl]-2-oxo-ethyl]-5,6-dihydro-4H-cyclopenta[c]pyrazole-3-carbonyl]-3,3-difluoro-4-piperidyl]ammonium;2,2,2-trifluoroacetate] to `Cc1cccc(N2CCN(C(=O)Cn3nc(C(=O)N4CCNCC4)c4c3CCC4)CC2)c1C` [Example 195, 1-[4-(2,3-dimethylphenyl)piperazin-1-yl]-2-[3-(piperazin-1-carbonyl)-5,6-dihydrocyclopenta[c]pyrazol-1(4H)-yl]ethan-1-one], the IC50 rises from 27.9 nM to 189 nM (6.8-fold).

`Cc1cccc(N2CCN(C(=O)Cn3nc(C(=O)N4CCC(C(C)(C)O)CC4)c4c3CCC4)CC2)c1C` [Example 144, 1-[4-(2,3-dimethylphenyl)piperazin-1-yl]-2-{3-[4-(2-hydroxypropan-2-yl)piperidine-1-carbonyl]-5,6-dihydrocyclopenta[c]pyrazol-1(4H)-yl}ethan-1-one] and `Cc1cccc(N2CCN(C(=O)Cn3nc(C(=O)N4CCC(c5cc[nH]n5)CC4)c4c3CCC4)CC2)c1C` [Example 145, 1-[4-(2,3-dimethylphenyl)piperazin-1-yl]-2-{3-[4-(1H-pyrazol-3-yl)piperidine-1-carbonyl]-5,6-dihydrocyclopenta[c]pyrazol-1(4H)-yl}ethan-1-one] are within 1.5-fold of each other in IC50: 1.58 nM for the first, 1.77 nM for the second.

First: Cc1cccc(N2CCN(C(=O)Cn3nc(C(=O)N4CC[C@@H](O)[C@@H](F)C4)c4c3C(O)CC4)CC2)c1C (single isomer, unassigned) [Example 422]
Second: Cc1cccc(N2CCN(C(=O)Cn3nc(C(=O)N4CC[C@H](O)[C@@H](F)C4)c4c3C[C@H]3C[C@@H]43)C3(CC3)C2)c1C [Example 359]
The IC50 of the first is 1500-fold higher: 2950 nM for the first, 1.93 nM for the second.

`Cc1cccc(N2CCN(C(=O)Cn3nc(C(=O)N4CCC5NC(=O)OCC5C4)c4c3C[C@H]3C[C@@H]43)CC2)c1C` (stereo partly drawn) [Example 240, 6-[(3bR,4aR)-1-{2-[4-(2,3-dimethylphenyl)piperazin-1-yl]-2-oxoethyl}-3b,4,4a,5-tetrahydro-1H-cyclopropa[3,4]cyclopenta[1,2-c]pyrazole-3-carbonyl]octahydro-2H-pyrido[4,3-d][1,3]oxazin-2-one] and `Cc1cccc(N2CCN(C(=O)Cn3nc(C(=O)N4CCCC(NC(N)=O)C4)c4c3C[C@H]3C[C@@H]43)CC2)c1C` (stereo partly drawn) [Example 272, N-{1-[(3bR,4aR)-1-{2-[4-(2,3-dimethylphenyl)piperazin-1-yl]-2-oxoethyl}-3b,4,4a,5-tetrahydro-1H-cyclopropa[3,4]cyclopenta[1,2-c]pyrazole-3-carbonyl]piperidin-3-yl}urea] are within 1.5-fold of each other in IC50: 13.3 nM for the first, 16.3 nM for the second.

First: C[C@@H]1CN(C(=O)c2nn(CC(=O)N3CCN(C4CCCc5ccccc54)CC3)c3c2CCC3)C[C@H](C)O1 (stereo partly drawn) [Example 428, 2-(3-((2S,6R)-2,6-dimethylmorpholine-4-carbonyl)-5,6-dihydrocyclopenta[c]pyrazol-1(4H)-yl)-1-(4-(1,2,3,4-tetrahydronaphthalen-1-yl)piperazin-1-yl)ethanone]
Second: C[C@@H]1CN(C(=O)c2nn(CC(=O)N3CCN(c4ccccc4C4CC4)CC3)c3c2CCC3)C[C@H](C)O1 [Example 59, 1-[4-(2-cyclopropylphenyl)piperazin-1-yl]-2-{3-[(2R,6S)-2,6-dimethylmorpholine-4-carbonyl]-5,6-dihydrocyclopenta[c]pyrazol-1(4H)-yl}ethan-1-one]
The IC50 of the first is 3.7-fold lower: 85.7 nM for the first, 319 nM for the second. The first is the more potent here.

First: Cc1c(Cl)cccc1N1CCN(C(=O)Cn2nc(C(=O)N3CCC(O)(CF)CC3)c3c2CCCC3)CC1 [Example 407, 1-(4-(3-chloro-2-methylphenyl)piperazin-1-yl)-2-(3-(4-(fluoromethyl)-4-hydroxypiperidine-1-carbonyl)-4,5,6,7-tetrahydro-1H-indazol-1-yl)ethanone]
Second: Cc1cccc(N2CCN(C(=O)Cn3nc(C(=O)N4CCC(C)(CN)CC4)c4c3CCC4)CC2)c1C [Example 179, 2-{3-[4-(aminomethyl)-4-methylpiperidine-1-carbonyl]-5,6-dihydrocyclopenta[c]pyrazol-1(4H)-yl}-1-[4-(2,3-dimethylphenyl)piperazin-1-yl]ethan-1-one]
The IC50 of the first is 76-fold lower: 1.09 nM for the first, 82.8 nM for the second.

Going from `CNC(=O)C1CCN(C(=O)c2nn(CC(=O)N3CCN(c4cccc(C)c4C)CC3)c3c2[C@@H]2C[C@@H]2C3)CC1` [Example 254, 1-[(3bR,4aR)-1-{2-[4-(2,3-dimethylphenyl)piperazin-1-yl]-2-oxoethyl}-3b,4,4a,5-tetrahydro-1H-cyclopropa[3,4]cyclopenta[1,2-c]pyrazol-3-carbonyl]-N-methylpiperidine-4-carboxamide] to `Cc1cccc(N2CCN(C(=O)Cn3nc(C(=O)N4CCC(N5CCC5)CC4)c4c3C[C@H]3C[C@@H]43)CC2)c1C` [Example 258, 2-{(3bR,4aR)-3-[4-(azetidin-1-yl)piperidine-1-carbonyl]-3b,4,4a,5-tetrahydro-1H-cyclopropa[3,4]cyclopenta[1,2-c]pyrazol-1-yl}-1-[4-(2,3-dimethylphenyl)piperazin-1-yl]ethan-1-one], the IC50 rises from 1.71 nM to 2.95 nM (1.7-fold). The first is the more potent here.

First: Cc1cccc(N2CCN(C(=O)Cn3nc(C(=O)N4CCC5(CC4)CNC(=O)CO5)c4c3CCC4)CC2)c1C [Example 190, 9-(1-{2-[4-(2,3-dimethylphenyl)piperazin-1-yl]-2-oxoethyl}-1,4,5,6-tetrahydrocyclopenta[c]pyrazole-3-carbonyll)-1-oxa-4,9-diazaspiro[5.5]undecan-3-one]
Second: Cc1cccc(N2CCN(C(=O)Cn3nc(C(=O)N4CCC5(CC4)COC(=O)N5)c4c3CCC4)CC2)c1C [Example 163, 8-(1-{2-[4-(2,3-dimethylphenyl)piperazin-1-yl]-2-oxoethyl}-1,4,5,6-tetrahydrocyclopenta[c]pyrazole-3-carbonyl)-3-oxa-1,8-diazaspiro[4.5] decan-2-one]
The IC50 of the first is 6.4-fold lower: 1.62 nM for the first, 10.3 nM for the second.

Going from `Cc1cccc(N2CCN(C(=O)Cn3nc(C(=O)N4CCC(N5CCCC5=O)CC4)c4c3C[C@H]3C[C@@H]43)CC2)c1C` [Example 228, 1-{2-[(3bR,4aR)-1-{2-[4-(2,3-dimethylphenyl)piperazin-1-yl]-2-oxoethyl}-3b,4,4a,5-tetrahydro-1H-cyclopropa[3,4]cyclopenta[1,2-c]pyrazole-3-carbonyl]piperidin-4-yl}pyrrolidin-2-one] to `Cc1cccc(N2CCN(C(=O)Cn3nc(C(=O)N4[C@@H](C)COC[C@@H]4C)c4c3CCC4)CC2)c1C` [Example 115, 2-{3-[(3S,5S)-3,5-dimethylmorpholine-4-carbonyl]-5,6-dihydrocyclopenta[c]pyrazol-1(4H)-yl}-1-[4-(2,3-dimethylphenyl)piperazin-1-yl]ethan-1-one], the IC50 rises from 1 nM to 176 nM (180-fold). The first is the more potent here.

First: O=C(Cn1nc(C(=O)N2CC[C@H](O)[C@H](F)C2)c2c1CCC2)N1CCN(C2CCCc3ccccc32)CC1 (stereo partly drawn) [Example 425, 2-(3-((3R,4S)-3-fluoro-4-hydroxypiperidine-1-carbonyl)-5,6-dihydrocyclopenta[c]pyrazol-1(4H)-yl)-1-(4-(1,2,3,4-tetrahydronaphthalen-1-yl)piperazin-1-yl)ethanone]
Second: O=C(Cn1nc(C(=O)N2CCC(O)CC2)c2c1CCC2)N1CCN(C2CCc3ccccc32)CC1 (single isomer, unassigned) [Example 436, 1-(4-(2,3-dihydro-1H-inden-1-yl)piperazin-1-yl)-2-(3-(4-hydroxypiperidine-1-carbonyl)-5,6-dihydrocyclopenta[c]pyrazol-1(4H)-yl)ethanone]
The IC50 of the first is 25-fold higher: 565 nM for the first, 22.8 nM for the second. The second is the more potent here.

Going from `Cc1c(F)ccc(N2CCN(C(=O)Cn3nc(C(=O)N4CC[C@@H](O)[C@H](F)C4)c4c3C[C@H]3C[C@@H]43)C3(CC3)C2)c1C` [Example 318, 1-[7-(4-fluoro-2,3-dimethylphenyl)-4,7-diazaspiro[2.5]octan-4-yl]-2-{(3bR,4aR)-3-[(3R,4R)-3-fluoro-4-hydroxypiperidine-1-carbonyl]-3b,4,4a,5-tetrahydro-1H-cyclopropa[3,4]cyclopenta[1,2-c]pyrazol-1-yl}ethan-1-one] to `Cc1c(Cl)cccc1N1CCN(C(=O)Cn2nc(C(=O)N3CCC(NCCO)CC3)c3c2C[C@H]2C[C@@H]32)C2(CC2)C1` [Example 313, 1-[7-(3-chloro-2-methylphenyl)-4,7-diazaspiro[2.5]octan-4-yl]-2-[(3bR,4aR)-3-{4-[(2-hydroxyethyl)amino]piperidine-1-carbonyl}-3b,4,4a,5-tetrahydro-1H-cyclopropa[3,4]cyclopenta[1,2-c]pyrazol-1-yl]ethan-1-one], the IC50 rises from 1.41 nM to 67.5 nM (48-fold). The first is the more potent here.
